Laboratory results reported in publication PMC5830763, “Discovery of benzothiazolylquinoline conjugates as novel human A3 receptor antagonists: biological evaluations and molecular docking studies” (Royal Society Open Science, 2018).
Values joined by “and” are separate entries in the source; they are usually repeats but may differ in a detail not shown here. Equal values may be shown once.

What was measured:
hA1AR = target: T1, hA1AR (Homo sapiens, UniProt P30542); assay: Displacement of specific [3H]CCPA binding at hA1AR expressed in CHO cells; conditions: [3H]-CCPA displacement, n = 3–6, read-out: Ki hA1 (95% CI)
T1 sequence (P30542 1-326): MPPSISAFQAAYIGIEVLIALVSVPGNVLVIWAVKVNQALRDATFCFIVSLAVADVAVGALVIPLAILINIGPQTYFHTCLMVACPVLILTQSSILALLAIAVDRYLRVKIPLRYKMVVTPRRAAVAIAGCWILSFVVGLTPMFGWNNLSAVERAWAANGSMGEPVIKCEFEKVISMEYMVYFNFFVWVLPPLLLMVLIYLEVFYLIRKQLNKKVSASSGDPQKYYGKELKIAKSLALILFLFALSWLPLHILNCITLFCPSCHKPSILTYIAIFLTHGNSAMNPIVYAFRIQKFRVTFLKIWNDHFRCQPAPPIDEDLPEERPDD
From the text: (§1) The receptor binding affinities of the synthesized benzothiazolylquinoline derivatives (6a-l) are recapitulated in table 2. The binding affinity of the antagonist was estimated by measuring the displacement of selective radioligands which were formerly bound to the receptor expressed (Chinese hamster ovary cells (CHO) for hA1AR, hA2AAR and hA3AR) at the surface of the cell. In this particular assay, the displacement of: (i) specific [3H] CCPA (2-chloro-N(6)-cyclopentyladenosine) binding at hA1AR, (ii) specific [3H] NECA (5'-N-ethylcarboxamidoadenosine) binding at the hA2AAR, and (iii) [3H] HEMADO (2-(1-hexynyl)-N^6-methyladenosine) at the hA3AR were evaluated. […] Ki (dissociation constant) value of the data was calculated using the Cheng and Prusoff equation [49], with geometric means of at least three experiments including 95% confidence intervals. […] Selectivity of this compound at hA3 with respect to hA1 and hA2 has also been reduced to some extent.
(§2) The human A1, A2A, A2B, and A3ARs were transfected in CHO cells based on the previously reported method. The cells were grown adherently and maintained in Dulbecco's modified Eagle's medium with nutrient mixture F12 (DMEM/F12) without nucleosides, containing 10% foetal calf serum, streptomycin (100 µg ml^−1), penicillin (100 µg ml^−1), L-glutamine (2 mM) and Geneticin (G418, 0.2 mg ml^−1) at 37°C in 5% CO2, 95% air. The membrane preparation was initiated by removal of culture medium followed by washing of the cells with phosphate buffered saline and scraped off T75 flasks in ice-cold hypotonic buffer (5 mM Tris–HCl, 2 mM EDTA, pH7.4). Then the cell suspension was homogenized with a polytron, and the homogenate was centrifuged for 10 min at 1000 g. The supernatant was then centrifuged for 30 min at 100 000 g. The membrane pellet was suspended in (i) 50 mM Tris–HCl buffer, pH 7.4, for A1ARs; (ii) 50 mM Tris–HCl, 10 mM MgCl2 buffer, pH 7.4, for A2AARs; and (iii) 50 mM Tris–HCl, 10 mM MgCl2, 1 mM EDTA buffer, pH 7.4, for A3ARs. The cell suspension was incubated with adenosine deaminase for 30 min at 37°C. Then the membrane preparation was used for binding experiments.
(§3) For radioligand binding at A1 ARs 1 nM [3H] CCPA was used, whereas 30 nM of [3H] NECA were used for A2A and 10 nM of [3H]- HEMADO were used for A3 receptors, respectively. Nonspecific binding of [3H]CCPA was determined in the presence of 1 mM theophylline, when [3H]NECA 100 µM R-PIA was used.
(§4) Inhibitory binding constants, Ki, were calculated from the IC50 values according to the Cheng and Prusoff equation Ki = IC50/(1 + [C*]/KD*), where [C*] is the concentration of the radioligand and KD* its dissociation constant. A weighted nonlinear least-squares curve fitting program LIGAND was also used for computer analysis of inhibition experiments. Potency values (IC50) obtained in cyclic AMP assays were calculated by nonlinear regression analysis using the equation for a sigmoid concentration–response curve (Graph Pad Prism, San Diego, CA, USA). All experimental data are expressed as geometric mean with 95% confidence limits in parentheses of three or four independent experiments performed in duplicate.

hA2AAR = target: T2, hA2AAR (Homo sapiens, UniProt P29274); assay: Displacement of specific [3H]NECA binding at hA2AAR expressed in CHO cells; conditions: [3H]-NECA displacement, n = 3–6, read-out: Ki hA2A (95% CI)
T2 construct: expressed in transfected cells; host or cells: CHO cells (membrane preparation)
From the text: as §1, §2, §3, §4

hA2BAR = target: T3, hA2BAR (Homo sapiens, UniProt P29275); assay: Inhibition of NECA-stimulated adenylyl cyclase activity in CHO cells expressing hA2BAR; type: biochemical; conditions: read-out: Ki hA2B (95% CI)
T3 construct: expressed in transfected cells; host or cells: CHO cells (crude membrane pellet)
T3 sequence (P29275 1-332): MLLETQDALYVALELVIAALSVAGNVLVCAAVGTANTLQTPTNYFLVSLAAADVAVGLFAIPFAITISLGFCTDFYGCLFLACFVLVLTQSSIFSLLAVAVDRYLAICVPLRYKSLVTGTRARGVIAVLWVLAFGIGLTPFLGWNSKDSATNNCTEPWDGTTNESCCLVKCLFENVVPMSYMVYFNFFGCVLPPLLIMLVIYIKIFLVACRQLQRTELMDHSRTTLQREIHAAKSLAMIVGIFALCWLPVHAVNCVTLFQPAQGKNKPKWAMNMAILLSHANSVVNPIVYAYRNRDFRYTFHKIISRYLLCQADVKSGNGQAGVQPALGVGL
Method: as §2
The potency of antagonists at the A2BAR was determined in adenylyl cyclase experiments. For the measurement of adenylyl cyclase activity, only one high speed centrifugation of the homogenate was used. The resulting crude membrane pellet was resuspended in 50 mM Tris–HCl, pH 7.4 and immediately used for the cyclase assay.
as §4

hA3AR = target: T4, hA3AR (Homo sapiens, UniProt P0DMS8); assay: Displacement of specific [3H]HEMADO binding at hA3AR expressed in CHO cells; conditions: for Ki: [3H]-HEMADO displacement, CHO cells, n = 3–6, read-out: Ki hA3 (95% CI); for selectivity hA1/A3: ratio of Ki hA1 to Ki hA3; for selectivity hA2A/A3: ratio of Ki hA2A to Ki hA3 as headed
T4 construct: expressed in transfected cells; host or cells: CHO cells (membrane preparation)
T4 sequence (P0DMS8 1-318): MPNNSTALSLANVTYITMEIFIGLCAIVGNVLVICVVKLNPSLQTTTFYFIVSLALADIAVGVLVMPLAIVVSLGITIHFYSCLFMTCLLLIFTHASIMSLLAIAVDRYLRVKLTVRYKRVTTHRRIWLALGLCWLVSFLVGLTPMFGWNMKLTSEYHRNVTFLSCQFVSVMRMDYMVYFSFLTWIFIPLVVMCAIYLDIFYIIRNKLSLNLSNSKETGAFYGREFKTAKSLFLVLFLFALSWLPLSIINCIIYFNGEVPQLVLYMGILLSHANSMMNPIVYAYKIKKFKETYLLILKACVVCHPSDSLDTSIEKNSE

T2 sequence (P29274 whole entry): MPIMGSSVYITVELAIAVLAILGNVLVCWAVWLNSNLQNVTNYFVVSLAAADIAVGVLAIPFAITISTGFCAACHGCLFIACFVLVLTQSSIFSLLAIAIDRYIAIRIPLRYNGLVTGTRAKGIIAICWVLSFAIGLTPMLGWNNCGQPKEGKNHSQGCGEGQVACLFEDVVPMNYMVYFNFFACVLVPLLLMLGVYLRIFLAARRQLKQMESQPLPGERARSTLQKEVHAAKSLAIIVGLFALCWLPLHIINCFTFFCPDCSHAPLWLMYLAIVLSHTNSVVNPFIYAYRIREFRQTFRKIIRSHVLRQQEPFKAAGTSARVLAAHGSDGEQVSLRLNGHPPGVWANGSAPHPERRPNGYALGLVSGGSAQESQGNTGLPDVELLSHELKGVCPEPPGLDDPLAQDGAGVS

SMILES	Ki (hA1AR) [µM]	Ki (hA2AAR) [µM]	Ki (hA2BAR) [µM]	Ki (hA3AR)	selectivity hA1/A3 (hA3AR)	selectivity hA2A/A3 (hA3AR)	melting point [°C]
c1ccc(-c2nc3ccccc3s2)c(OCCOc2cccc3cccnc23)c1 [Compound 6a]	> 100	23.8	> 30	~2.6 µM and 2.6 µM	–	–	–
Brc1cc(Br)c2cccnc2c1OCCOc1ccccc1-c1nc2ccccc2s1 [Compound 6b]	> 100	17.2	> 20	3.2 µM	>31.25	>6.25	110 to 112
Clc1ccc(OCCOc2ccccc2-c2nc3ccccc3s2)c2ncccc12 [Compound 6c]	30.8	32.8	> 20	30.4 µM	–	–	–
Clc1cc(I)c(OCCOc2ccccc2-c2nc3ccccc3s2)c2ncccc12 [Compound 6d]	> 100	> 20	> 20	5.6 µM	>17.85	>3.57	125 to 127
c1ccc(-c2nc3ccccc3s2)c(OCCCOc2cccc3cccnc23)c1 [Compound 6e]	> 100	> 20	> 30	3.8 µM	–	–	–
Brc1cc(Br)c2cccnc2c1OCCCOc1ccccc1-c1nc2ccccc2s1 [Compound 6f]	> 100	> 20	> 30	6.2 µM	–	–	–
Clc1ccc(OCCCOc2ccccc2-c2nc3ccccc3s2)c2ncccc12 [Compound 6g]	> 100	> 20	> 20	4.2 µM	–	–	–
Clc1cc(I)c(OCCCOc2ccccc2-c2nc3ccccc3s2)c2ncccc12 [Compound 6h]	> 100	> 20	> 20	6.1 µM	–	–	–

More lines, now with the values ahead:

Ki (hA1AR) [µM]	Ki (hA2AAR) [µM]	Ki (hA2BAR) [µM]	Ki (hA3AR)	selectivity hA1/A3 (hA3AR)	selectivity hA2A/A3 (hA3AR)	melting point [°C]	SMILES
29.7	34.9	> 20	25.4 µM	–	–	–	c1ccc(-c2nc3ccccc3s2)c(OCCCCOc2cccc3cccnc23)c1 [Compound 6i]
> 100	> 20	> 20	6.4 µM	–	–	–	Brc1cc(Br)c2cccnc2c1OCCCCOc1ccccc1-c1nc2ccccc2s1 [Compound 6j]
> 100	> 20	> 10	3.7 µM	–	–	–	Clc1ccc(OCCCCOc2ccccc2-c2nc3ccccc3s2)c2ncccc12 [Compound 6k]
> 100	> 20	> 30	3.6 µM	–	–	–	Clc1cc(I)c(OCCCCOc2ccccc2-c2nc3ccccc3s2)c2ncccc12 [Compound 6l]
